Measurements published in patent US20230143470A1, “SMALL MOLECULE INHIBITORS OF INFLUENZA HEMAGGLUTININ” (THE SCRIPPS RESEARCH INSTITUTE, priority 2020, published 2023).

Biological target: H3/HK68 HA (Influenza A virus, UniProt Q91MA7)
Sequence (Q91MA7 27-521 limits assumed): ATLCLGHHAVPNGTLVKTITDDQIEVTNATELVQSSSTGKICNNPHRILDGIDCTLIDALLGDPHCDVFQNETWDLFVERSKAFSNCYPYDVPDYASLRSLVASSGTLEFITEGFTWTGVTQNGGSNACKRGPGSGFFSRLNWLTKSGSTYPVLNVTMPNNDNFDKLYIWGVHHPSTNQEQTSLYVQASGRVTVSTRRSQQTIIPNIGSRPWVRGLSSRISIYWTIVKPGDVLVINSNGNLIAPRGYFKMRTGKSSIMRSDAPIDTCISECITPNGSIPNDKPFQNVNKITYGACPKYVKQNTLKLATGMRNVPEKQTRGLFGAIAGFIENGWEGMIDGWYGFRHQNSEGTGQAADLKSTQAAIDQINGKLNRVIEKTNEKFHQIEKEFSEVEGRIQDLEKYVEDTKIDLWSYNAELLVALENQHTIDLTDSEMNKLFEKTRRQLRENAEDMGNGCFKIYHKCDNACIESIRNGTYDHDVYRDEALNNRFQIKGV

## O=C(c1ccc(Cl)cc1Cl)N1CCO[C@H](c2ccccc2)C1 [F0045(R)]
  melting temperature of H3/HK68 HA: does not change

## O=C(c1ccc(Cl)cc1Cl)N1CCO[C@@H](c2ccccc2)C1 [F0045(S)]
  melting temperature of H3/HK68 HA: does not change
